Assay results as given in US12297186B2, “Benzylamide derivatives as inhibitors of transforming growth factor-beta receptor I/ALK5” (AGOMAB SPAIN, S.L.U., priority 2019, dated 2025).
pIC50: −log10 of the molar value. Where two headings read alike, the source gives them in different places.

Experiments:
myelofibrosis (MF) = settings: mouse models; cited from earlier work
[1] = dogs; cited from earlier work
MINK = MINK (Homo sapiens (Human), UniProt Q8N4C8); settings: cited from earlier work
TGFβRII = TGFβRII (Homo sapiens (Human), UniProt P37173); settings: cited from earlier work
Sequence of TGFβRII (P37173 23-567): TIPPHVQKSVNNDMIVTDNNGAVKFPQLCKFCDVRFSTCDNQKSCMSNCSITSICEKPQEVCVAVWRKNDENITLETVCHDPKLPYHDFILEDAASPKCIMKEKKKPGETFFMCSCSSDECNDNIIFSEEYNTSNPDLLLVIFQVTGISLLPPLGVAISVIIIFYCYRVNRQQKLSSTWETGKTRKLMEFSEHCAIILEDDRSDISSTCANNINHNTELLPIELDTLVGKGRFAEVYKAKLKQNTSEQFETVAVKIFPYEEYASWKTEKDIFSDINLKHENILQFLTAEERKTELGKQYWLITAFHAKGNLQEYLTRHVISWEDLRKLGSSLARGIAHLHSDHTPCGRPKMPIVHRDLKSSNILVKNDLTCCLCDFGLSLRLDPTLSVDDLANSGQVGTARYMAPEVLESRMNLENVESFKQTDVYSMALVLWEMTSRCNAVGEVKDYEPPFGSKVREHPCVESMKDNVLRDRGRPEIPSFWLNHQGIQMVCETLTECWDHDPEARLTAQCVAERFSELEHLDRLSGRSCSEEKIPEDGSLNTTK

ALK6 = ALK6 (Homo sapiens (Human), UniProt O00238); settings: cited from earlier work
Sequence of ALK6 (O00238 14-502): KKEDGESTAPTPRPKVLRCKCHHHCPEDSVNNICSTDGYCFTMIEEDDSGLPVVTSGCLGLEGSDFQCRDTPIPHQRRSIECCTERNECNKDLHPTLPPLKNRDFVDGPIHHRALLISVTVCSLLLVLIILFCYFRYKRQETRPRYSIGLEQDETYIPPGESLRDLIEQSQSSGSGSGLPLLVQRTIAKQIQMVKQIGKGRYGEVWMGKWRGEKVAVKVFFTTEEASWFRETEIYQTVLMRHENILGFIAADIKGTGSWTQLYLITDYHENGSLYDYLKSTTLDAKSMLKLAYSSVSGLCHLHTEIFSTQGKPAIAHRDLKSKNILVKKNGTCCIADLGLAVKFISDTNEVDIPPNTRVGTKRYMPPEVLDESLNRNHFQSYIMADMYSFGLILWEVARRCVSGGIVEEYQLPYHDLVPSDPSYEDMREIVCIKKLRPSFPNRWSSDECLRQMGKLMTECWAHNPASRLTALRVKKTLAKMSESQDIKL

[2] = rats; cited from earlier work
[3] = in vivo; cited from earlier work
ALK4 = ALK4 (Homo sapiens (Human), UniProt P36896); settings: cited from earlier work
Sequence of ALK4 (P36896 24-505, species assumed): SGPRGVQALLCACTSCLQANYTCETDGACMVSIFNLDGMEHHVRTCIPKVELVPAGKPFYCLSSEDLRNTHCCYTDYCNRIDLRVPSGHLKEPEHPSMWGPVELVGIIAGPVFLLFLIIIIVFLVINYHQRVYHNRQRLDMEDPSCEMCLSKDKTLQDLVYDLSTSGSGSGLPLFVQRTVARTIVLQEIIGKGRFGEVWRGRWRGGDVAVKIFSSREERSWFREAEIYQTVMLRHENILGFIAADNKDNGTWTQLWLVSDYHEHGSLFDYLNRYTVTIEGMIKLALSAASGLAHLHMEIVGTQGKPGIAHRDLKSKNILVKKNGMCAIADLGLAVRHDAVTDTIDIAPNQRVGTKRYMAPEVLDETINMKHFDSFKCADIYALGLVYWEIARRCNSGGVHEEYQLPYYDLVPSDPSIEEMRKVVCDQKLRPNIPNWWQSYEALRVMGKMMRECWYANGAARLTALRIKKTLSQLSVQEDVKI

ACVR2B = ACVR2B (Homo sapiens (Human), UniProt Q13705); settings: cited from earlier work
Sequence of ACVR2B (Q13705 19-512, species assumed): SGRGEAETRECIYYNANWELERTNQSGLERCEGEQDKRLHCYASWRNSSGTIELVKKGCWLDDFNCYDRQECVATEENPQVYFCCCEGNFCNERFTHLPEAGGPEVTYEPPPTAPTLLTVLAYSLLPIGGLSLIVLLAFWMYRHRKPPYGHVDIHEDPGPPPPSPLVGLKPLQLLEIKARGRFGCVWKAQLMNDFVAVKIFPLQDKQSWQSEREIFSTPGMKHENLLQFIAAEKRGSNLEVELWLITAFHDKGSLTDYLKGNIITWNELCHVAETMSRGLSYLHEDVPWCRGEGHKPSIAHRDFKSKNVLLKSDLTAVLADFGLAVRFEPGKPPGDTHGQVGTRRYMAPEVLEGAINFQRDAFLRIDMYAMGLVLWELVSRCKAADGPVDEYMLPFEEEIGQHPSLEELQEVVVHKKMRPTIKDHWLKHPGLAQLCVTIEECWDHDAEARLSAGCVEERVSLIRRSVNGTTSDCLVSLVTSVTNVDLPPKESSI

human pancreatic cancer = settings: systemic administration; cited from earlier work
heart valves = settings: rats, all doses tested; cited from earlier work
[4] = rats; cited from earlier work; remark: listed apart in the source
[5] = Identification study of metabolite; type: in vitro ADME
Excerpt: In an identification study of metabolite was identified Compound A. Said compound is 2-(3-(6-methylpyridin-2-yl)-4-(quinolin-4-yl)-1H-pyrazol-1-yl)acetic acid and has the following formula: […]
Compound A was identified as the major metabolite of examples 9, 15, 20, 22, 24 and 26, among others.

[6] = Plasma pharmacokinetic assay, single oral administration; type: in vivo, male Sprague Dawley rats; settings: rat, P.O., 5 mg/kg
Experimental: Plasma Pharmacokinetic Assay
The objective of this study was to investigate the plasma pharmacokinetics of some compounds of the present invention in male Sprague Dawley rats following a single oral administration. Three rats per compound were used in this study. Animals were administered with suspension formulation of each compound in 0.5% Tween-80 and 99.5% NaCMC (0.5% w/v in RO Water) by oral route at 5 mg/kg. The blood samples were collected from set of three rats at each time point in labelled micro centrifuge tube containing K2EDTA solution as anticoagulant at 0.25, 0.5, 1, 2, 4, 6, 8, 12 and 24 hr (p.o.). Plasma samples were separated by centrifugation of whole blood and stored below −70±10° C. until bioanalysis. All samples were processed for analysis by protein precipitation using acetonitrile and analysed with fit-for-purpose LC-MS/MS method (LLOQ=1.01 ng/mL). Pharmacokinetic parameters were calculated using the non-compartmental analysis tool of Phoenix WinNonlin® (Version 7.0).

[7] = Metabolic stability assay, human microsomes; type: in vitro ADME; settings: for microsomal CLint: human recombinant microsomes (Tebu-Xenotech)
Experimental: (§1) Metabolic Stability Assay
(§2) Human and rat recombinant microsomes from Tebu-Xenotech were employed in the assay. They content 0.5 mg/ml of protein. The following quantities were added to each well of a 96-well microplate.
(§3) Plates were incubated at 37° C. and 75 μL samples were taken at 0, 10, 20, 40 and 60 minutes. Samples were transferred to a microplate and 75 μl Acetonitrile were added for inactivating the microsomes, and 30 μl of H2O for improving the chromatographic conditions and kept at 4° C. When all the samples were taken the plate was centrifuged at […] for 30 min at 15° C. Supernatant was taken and injected in the UPLC-MS/MS.
(§4) Stationary phase: Reverse phase Acquity UPLC® BEH C18 1.7 μm (2.1 mm×50 mm) (Waters). Mobile phase: A: 0.1% formic; B:acetonitrile+0.1% formic acid. Flow: 0.6 ml/min. The chromatographic equipment employed was an UPLC QSM Waters Acquity. Compound concentrations were calculated from the UV peak areas. The response was linear in the range between 10 ng/ml and 0.3125 ng/ml. Metabolic stability was calculated from the logarithm of the remaining compound at each of the times evaluated.
(§5) The data will be fitted to the one phase exponential decay equation using GraphPad Prism® software. The half-life (t1/2) generated by the software will be reported. Intrinsic clearance will be calculated using the formula where, k=decay rate constant (min^−1).

TGF-beta kinase (ALK-5) = TGF-beta kinase (ALK-5) (Homo sapiens (Human), UniProt P36897); assay: Determination of the intracellular TGF-beta kinase activity (ALK-5), p-SMAD3 AlphaLISA in A549 cells; type: cell-based; settings: A549 cell line, TGF-β2 activated, p-SMAD3; read-out: IC50 range
Sequence of TGF-beta kinase (ALK-5) (P36897 34-503): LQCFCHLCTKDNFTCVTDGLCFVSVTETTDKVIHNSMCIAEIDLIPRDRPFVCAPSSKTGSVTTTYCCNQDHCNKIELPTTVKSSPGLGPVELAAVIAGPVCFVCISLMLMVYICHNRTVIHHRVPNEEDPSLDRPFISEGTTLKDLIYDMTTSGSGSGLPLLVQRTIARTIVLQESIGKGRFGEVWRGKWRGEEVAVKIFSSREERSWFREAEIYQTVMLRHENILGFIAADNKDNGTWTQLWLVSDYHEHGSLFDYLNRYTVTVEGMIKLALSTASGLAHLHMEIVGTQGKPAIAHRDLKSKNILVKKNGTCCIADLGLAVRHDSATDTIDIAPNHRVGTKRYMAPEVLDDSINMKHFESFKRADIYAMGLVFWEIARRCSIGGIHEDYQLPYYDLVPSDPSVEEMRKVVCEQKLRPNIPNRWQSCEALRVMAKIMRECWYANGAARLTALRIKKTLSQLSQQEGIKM
Experimental: Determination of the Intracellular TGF-beta Kinase Activity (ALK-5)
The experiments were carried out in A549 cell line. 30000 cells were seeded in 200 μl of culture medium (Sigma D6046) supplemented with L-Glutamine (Sigma G7513), Penicillin/Streptomycin (Invitrogen 11058) and FBS (Sigma F9665) on a 96 wells microplate (Becton Dickinson 353072). After 16 hours medium waschanged to serum free medium.

Human TGFβR-1 kinase = Human TGFβR-1 kinase (Homo sapiens (Human), UniProt P36897); assay: In vitro enzyme assay: inhibition of TGFβR-1 kinase activity (ADP-Glo); type: biochemical; settings: TGFβR-1 kinase, 50 μM ATP; read-out: IC50 range
Sequence of Human TGFβR-1 kinase (P36897 34-503): as above
Experimental: In Vitro Enzyme Assay: Inhibition of TGFβR-1Kinase Activity
Human TGFβl R-1 inhibition experiments were carried out in a white 384-microplate low flange (Corning 3572) with ADP-Glo kinase Assay Kit (Promega V9101) and TGβR-1 Kinase Enzyme System (Promega V4092). […] The reaction mixture was incubated in gentle shaking for 120 min at RT, after incubation of 10 μL of ADP-Glo Reagent was added and incubated in gentle shaking for 40 min at RT. 20 μL of Kinase Detection Reagent was added and plate was incubated in gentle shaking for 30 min at RT. Luminiscence (1000 ms) was measured in Perkin Elmer EnSpire Multimode plate reader.

[8] = Metabolic stability assay, rat microsomes; type: in vitro ADME; settings: for microsomal CLint: rat recombinant microsomes (Tebu-Xenotech), pH 7.4
Experimental: as §1, §2, §3, §4, §5

[9] = male, Sprague-Dawley, po, plasma

Sequence of MINK (Q8N4C8 whole entry): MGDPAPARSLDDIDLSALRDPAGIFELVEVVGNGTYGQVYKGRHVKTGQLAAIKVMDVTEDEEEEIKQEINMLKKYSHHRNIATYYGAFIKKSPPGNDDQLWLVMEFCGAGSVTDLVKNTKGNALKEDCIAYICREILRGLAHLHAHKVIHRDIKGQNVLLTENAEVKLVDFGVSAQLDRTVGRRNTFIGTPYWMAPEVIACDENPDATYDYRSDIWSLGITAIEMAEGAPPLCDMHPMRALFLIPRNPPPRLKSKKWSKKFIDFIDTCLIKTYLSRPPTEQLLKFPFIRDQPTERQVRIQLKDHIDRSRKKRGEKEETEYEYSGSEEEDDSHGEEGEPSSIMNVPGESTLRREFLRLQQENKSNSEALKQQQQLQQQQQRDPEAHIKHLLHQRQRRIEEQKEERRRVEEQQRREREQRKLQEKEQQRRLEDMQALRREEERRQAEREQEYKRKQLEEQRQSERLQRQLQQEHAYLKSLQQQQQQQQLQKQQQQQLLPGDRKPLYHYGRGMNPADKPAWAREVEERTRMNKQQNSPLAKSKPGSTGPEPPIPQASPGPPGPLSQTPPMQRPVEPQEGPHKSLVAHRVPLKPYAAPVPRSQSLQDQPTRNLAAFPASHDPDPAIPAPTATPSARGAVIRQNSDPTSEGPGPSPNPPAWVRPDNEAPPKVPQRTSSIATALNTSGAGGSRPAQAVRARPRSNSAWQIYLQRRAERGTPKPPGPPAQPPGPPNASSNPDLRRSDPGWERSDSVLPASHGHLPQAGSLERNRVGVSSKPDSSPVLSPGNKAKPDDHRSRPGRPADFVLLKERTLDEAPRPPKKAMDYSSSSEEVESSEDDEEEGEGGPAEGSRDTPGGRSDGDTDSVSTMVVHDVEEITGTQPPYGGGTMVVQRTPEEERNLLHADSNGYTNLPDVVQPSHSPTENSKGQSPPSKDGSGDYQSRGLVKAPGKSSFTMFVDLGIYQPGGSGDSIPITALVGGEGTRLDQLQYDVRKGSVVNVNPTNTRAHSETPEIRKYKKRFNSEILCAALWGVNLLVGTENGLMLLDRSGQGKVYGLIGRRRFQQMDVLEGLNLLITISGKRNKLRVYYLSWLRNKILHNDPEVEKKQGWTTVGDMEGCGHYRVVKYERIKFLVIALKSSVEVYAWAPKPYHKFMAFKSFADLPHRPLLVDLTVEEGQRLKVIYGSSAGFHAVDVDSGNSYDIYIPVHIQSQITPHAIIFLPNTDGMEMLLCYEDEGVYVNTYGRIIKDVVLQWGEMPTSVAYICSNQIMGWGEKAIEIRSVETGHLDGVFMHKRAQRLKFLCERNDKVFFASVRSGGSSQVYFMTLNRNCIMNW

SMILES	Major metabolite identified [5]	% remanent (sampling time 60 min) [7] [%]	microsomal CLint [7] [µL/min/mg]	pIC50 (TGF-beta kinase (ALK-5))	pIC50 (Human TGFβR-1 kinase)	% remanent (sampling time 60 min) [8] [%]	microsomal CLint [8] [µL/min/mg]	other results
Cc1cccc(-c2nn3c(c2-c2ccnc4ccc(C(N)=O)cc24)CCC3)n1 [Galunisertib]	–	–	–	–	–	–	–	Effect on myelofibrosis (myelofibrosis (MF)): significantly improved MF; Major target organs for toxicity [1]: the heart and great vessels; IC50 MINK (MINK): submicromolar; IC50 TGFβRII (TGFβRII): submicromolar; IC50 ALK6 (ALK6): submicromolar; Major target organs for toxicity [2]: the heart and great vessels; oral bioavailability [3]: orally bioavailable; pIC50 (ALK4): 6.11; IC50 ACVR2B (ACVR2B): submicromolar
c1ccc(-c2nn3c(c2-c2ccnc4cc(OCCN5CCOCC5)ccc24)CCC3)nc1 [LY2109761]	–	–	–	–	–	–	–	Effect on metastasis (human pancreatic cancer): suppresses liver and other abdominal site metastasis
c1ccc(-c2nc3c(c(-n4ccc5cnccc54)n2)CCC3)nc1 [AZ12601011]	–	–	–	–	–	–	–	Histopathology finding in heart (heart valves): heart valve lesions
Cc1cccc(-c2[nH]c(CNc3ccccc3F)nc2-c2ccc3ncnn3c2)n1 [EW-7197]	–	–	–	–	–	–	–	oral bioavailability [4]: 51%
Cc1cccc(-c2nn(CC(=O)NCc3ccccc3Cl)cc2-c2ccnc3ccccc23)n1 [Example 22, N-(2-chlorobenzyl)-2-(3-(6-methylpyridin-2-yl)-4-(quinolin-4-yl)-1H-pyrazol-1-yl)acetamide]	Compound A	0.03	378	> 7.00	> 7.00	0.14	644	AUC(0-inf) [6, 9]: 15.3 ng·h/mL; AUC(0-t) [6, 9]: 13.7 ng·h/mL; Cmax [6, 9]: 20 ng/mL; Tmax [6, 9]: 19.8 min
Cc1cccc(-c2nn(CC(=O)NCc3c(F)cccc3F)cc2-c2ccnc3ccccc23)n1 [Example 24, N-(2,6-difluorobenzyl)-2-(3-(6-methylpyridin-2-yl)-4-(quinolin-4-yl)-1H-pyrazol-1-yl)acetamide]	Compound A	0.05	307	> 7.00	> 7.00	0.01	360	Plasma concentrations quantifiable (PK parameters not calculable) ([6]; LLOQ 1.01 ng/mL): Concentrations were quantifiable only at 0.25
Cc1ccc(CNC(=O)Cn2cc(-c3ccnc4ccccc34)c(-c3cccc(C)n3)n2)cc1 [Example 20, N-(4-methylbenzyl)-2-(3-(6-methylpyridin-2-yl)-4-(quinolin-4-yl)-1H-pyrazol-1-yl)acetamide]	Compound A	0.01	216	> 7.00	> 7.00	0.02	381	–
Cc1ccc(Oc2ccnc(Nc3ccc(S(N)(=O)=O)cc3)c2)c(C)n1 [AZ12799734]	–	–	–	–	–	–	–	Histopathology finding in heart (heart valves): heart valve lesions
